PMC3602277 (Bioorganic & medicinal chemistry, 2013)

Legend:
[1] = system: A431 cancer cells
[2] = system: EGFR; conditions: read-out: EGFR IC50; cited from earlier work
[3] = system: A431 cancer cells; test: A431 cytotoxicity, CYQUANT cell proliferation assay; conditions: ratio of IC50 vs cisplatin 23
[4] = target: VEGFR-2 (Homo sapiens, UniProt P35968); test: Phosphotyrosine ELISA cytoblot, VEGFR-2 kinase inhibition in whole cells; assay type: cell-based; conditions: for fold less active than standard 20 in VEGFR-2 inhibition assay: ratio of IC50 vs semaxanib 20
[5] = target: PDGFR-β (Homo sapiens, UniProt P09619); test: Phosphotyrosine ELISA cytoblot, PDGFR-β kinase inhibition in whole cells; assay type: cell-based
[6] = target: EGFR (Homo sapiens, UniProt P00533); test: Phosphotyrosine ELISA cytoblot, EGFR kinase inhibition in whole cells; assay type: cell-based
Sequence of EGFR (Homo sapiens, UniProt P00533) (P00533 25-1210): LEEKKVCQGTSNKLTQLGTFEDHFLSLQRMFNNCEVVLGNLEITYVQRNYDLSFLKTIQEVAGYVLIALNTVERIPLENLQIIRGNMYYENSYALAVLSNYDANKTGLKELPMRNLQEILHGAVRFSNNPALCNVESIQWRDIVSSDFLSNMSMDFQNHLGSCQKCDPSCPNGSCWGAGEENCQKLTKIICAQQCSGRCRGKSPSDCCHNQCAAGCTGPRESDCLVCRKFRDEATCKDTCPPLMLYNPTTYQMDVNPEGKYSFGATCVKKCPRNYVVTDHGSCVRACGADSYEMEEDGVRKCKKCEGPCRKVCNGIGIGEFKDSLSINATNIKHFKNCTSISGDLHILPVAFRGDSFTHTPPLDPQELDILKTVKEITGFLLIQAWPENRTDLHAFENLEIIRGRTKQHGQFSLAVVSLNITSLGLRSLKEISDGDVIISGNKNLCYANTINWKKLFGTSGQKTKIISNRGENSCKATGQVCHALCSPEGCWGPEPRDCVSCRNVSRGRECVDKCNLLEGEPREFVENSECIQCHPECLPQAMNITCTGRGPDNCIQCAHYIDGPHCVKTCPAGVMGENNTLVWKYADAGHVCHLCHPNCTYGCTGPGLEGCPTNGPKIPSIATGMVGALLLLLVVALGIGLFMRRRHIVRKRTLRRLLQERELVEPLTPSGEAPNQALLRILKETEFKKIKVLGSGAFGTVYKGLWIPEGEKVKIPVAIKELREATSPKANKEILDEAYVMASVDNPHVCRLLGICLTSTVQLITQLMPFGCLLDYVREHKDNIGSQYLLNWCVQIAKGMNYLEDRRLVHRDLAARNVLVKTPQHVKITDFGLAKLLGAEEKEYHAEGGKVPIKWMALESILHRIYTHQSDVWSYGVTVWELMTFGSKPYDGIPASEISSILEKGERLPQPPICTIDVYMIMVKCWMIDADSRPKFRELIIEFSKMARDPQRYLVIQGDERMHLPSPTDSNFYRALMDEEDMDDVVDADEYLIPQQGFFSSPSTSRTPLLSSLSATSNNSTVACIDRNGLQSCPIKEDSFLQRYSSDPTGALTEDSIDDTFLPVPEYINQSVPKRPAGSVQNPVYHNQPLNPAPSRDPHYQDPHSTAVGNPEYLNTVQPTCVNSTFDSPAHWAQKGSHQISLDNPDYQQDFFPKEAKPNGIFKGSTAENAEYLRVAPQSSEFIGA

Sequence of VEGFR-2 (P35968 20-1356): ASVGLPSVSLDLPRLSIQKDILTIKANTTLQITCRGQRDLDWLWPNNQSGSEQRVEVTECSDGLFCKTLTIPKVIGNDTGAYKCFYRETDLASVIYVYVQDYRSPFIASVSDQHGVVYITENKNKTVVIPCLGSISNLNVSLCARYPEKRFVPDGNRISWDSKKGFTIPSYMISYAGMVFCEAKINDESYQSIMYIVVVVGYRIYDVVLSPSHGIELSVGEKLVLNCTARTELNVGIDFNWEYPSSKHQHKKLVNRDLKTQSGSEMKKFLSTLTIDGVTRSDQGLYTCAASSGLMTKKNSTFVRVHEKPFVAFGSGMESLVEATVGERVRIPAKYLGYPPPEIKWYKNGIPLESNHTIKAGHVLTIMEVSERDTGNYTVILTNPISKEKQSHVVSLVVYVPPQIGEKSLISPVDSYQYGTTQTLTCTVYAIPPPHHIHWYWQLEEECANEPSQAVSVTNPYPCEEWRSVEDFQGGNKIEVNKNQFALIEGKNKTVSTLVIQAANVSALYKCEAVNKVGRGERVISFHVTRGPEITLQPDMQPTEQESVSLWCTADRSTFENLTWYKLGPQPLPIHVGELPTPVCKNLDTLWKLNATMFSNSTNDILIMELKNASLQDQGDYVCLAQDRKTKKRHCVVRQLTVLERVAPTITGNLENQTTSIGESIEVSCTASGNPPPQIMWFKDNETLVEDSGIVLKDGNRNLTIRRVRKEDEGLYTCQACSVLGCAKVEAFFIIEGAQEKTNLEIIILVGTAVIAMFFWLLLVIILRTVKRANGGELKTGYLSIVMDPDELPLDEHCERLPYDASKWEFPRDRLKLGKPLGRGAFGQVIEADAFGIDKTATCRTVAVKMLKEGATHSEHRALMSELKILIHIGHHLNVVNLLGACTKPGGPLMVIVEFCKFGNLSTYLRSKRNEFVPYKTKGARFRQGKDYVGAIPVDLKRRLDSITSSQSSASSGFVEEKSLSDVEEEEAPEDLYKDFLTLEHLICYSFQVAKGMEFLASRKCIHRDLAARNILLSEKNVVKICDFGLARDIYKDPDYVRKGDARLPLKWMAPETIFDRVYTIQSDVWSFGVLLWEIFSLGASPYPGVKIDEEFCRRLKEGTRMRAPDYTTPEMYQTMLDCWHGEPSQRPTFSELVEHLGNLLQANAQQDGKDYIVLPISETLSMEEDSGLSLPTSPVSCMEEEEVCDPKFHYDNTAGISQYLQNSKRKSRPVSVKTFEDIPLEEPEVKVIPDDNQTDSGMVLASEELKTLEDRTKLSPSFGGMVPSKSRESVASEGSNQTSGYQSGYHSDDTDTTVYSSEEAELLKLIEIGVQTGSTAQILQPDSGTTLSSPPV
Sequence of PDGFR-β (P09619 33-1106): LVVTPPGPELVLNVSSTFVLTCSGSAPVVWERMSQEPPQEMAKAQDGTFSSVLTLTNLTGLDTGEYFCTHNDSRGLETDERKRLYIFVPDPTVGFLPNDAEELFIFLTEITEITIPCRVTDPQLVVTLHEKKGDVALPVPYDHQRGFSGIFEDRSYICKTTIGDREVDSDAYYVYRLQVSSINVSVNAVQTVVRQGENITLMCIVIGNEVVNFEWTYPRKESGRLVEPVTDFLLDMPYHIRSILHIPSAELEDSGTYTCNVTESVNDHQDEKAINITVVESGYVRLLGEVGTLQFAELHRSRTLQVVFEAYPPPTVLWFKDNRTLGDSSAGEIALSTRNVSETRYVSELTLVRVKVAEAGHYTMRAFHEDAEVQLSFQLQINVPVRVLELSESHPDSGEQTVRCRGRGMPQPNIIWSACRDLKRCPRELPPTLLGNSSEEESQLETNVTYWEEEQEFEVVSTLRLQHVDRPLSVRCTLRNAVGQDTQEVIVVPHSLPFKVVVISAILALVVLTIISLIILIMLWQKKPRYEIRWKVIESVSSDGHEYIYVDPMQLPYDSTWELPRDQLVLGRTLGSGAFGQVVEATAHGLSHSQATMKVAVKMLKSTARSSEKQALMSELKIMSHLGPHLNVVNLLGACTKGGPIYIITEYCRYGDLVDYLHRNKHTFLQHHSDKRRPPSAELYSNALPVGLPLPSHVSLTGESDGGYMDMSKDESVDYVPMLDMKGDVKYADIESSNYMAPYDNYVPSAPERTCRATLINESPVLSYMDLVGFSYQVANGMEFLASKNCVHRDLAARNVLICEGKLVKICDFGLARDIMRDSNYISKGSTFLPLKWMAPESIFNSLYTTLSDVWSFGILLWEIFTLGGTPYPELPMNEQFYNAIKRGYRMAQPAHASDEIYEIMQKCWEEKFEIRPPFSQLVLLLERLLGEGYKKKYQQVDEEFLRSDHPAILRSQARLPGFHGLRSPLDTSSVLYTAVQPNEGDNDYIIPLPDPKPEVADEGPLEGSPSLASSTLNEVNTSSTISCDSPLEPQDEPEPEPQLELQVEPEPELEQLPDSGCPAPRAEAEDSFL

[NH2][Pt]([NH2])([Cl])[Cl] [Cisplatin (23), cisplatin]
IC50 [1]: 10.6 ± 2.9 µM

Clc1cccc(Nc2ncnc3[nH]c4ccccc4c23)c1 [Compound 1]
IC50 [2]: 0.006 µM

Nc1nc(Nc2ccc(Cl)cc2)c2c(n1)[nH]c1cccc(Cl)c12 [Compound 5, 5-chloro-N^4-(4-chlorophenyl)-9H-pyrimido[4,5-b]indole-2,4-diamine]
fold less potent than standard 23 in A431 cytotoxicity assay [3]: 4 fold
fold more potent than erlotinib in VEGFR-2 inhibition assay ([4]; ratio of IC50 vs erlotinib): 9.4 fold
fold more potent than sunitinib in VEGFR-2 inhibition assay ([4]; ratio of IC50 vs sunitinib): 1.4 fold
potency relative to standard 20 in VEGFR-2 inhibition assay ([4]; vs semaxanib 20): equipotent

COc1cccc(Nc2nc(N)nc3[nH]c4cccc(Cl)c4c23)c1 [Compound 8, 5-chloro-N^4-(3-methoxyphenyl)-9H-pyrimido[4,5-b]indole-2,4-diamine]
fold less active than standard 22 in PDGFR-β inhibition assay ([5]; ratio of IC50 vs DMBI 22): about 13.5 fold
fold less active than erlotinib in PDGFR-β inhibition assay ([5]; ratio of IC50 vs erlotinib): 4 fold
fold less active than corresponding 2-amino pivaloyl compound, VEGFR-2 ([4]; 7 vs 13, 8 vs 14): ~1.7 fold
fold less active than standard 20 in VEGFR-2 inhibition assay [4]: 7 fold

CC(C)c1ccc(Nc2nc(NC(=O)C(C)(C)C)nc3[nH]c4cccc(Cl)c4c23)cc1 [Compound 10, N-{5-chloro-4-[(4-isopropylphenyl)amino]-9H-pyrimido[4,5-b]indol-2-yl}-2,2-dimethylpropanamide]
fold less active than standard 20 in VEGFR-2 inhibition assay [4]: ~4 fold

CC(C)(C)C(=O)Nc1nc(Nc2ccc(Cl)cc2)c2c(n1)[nH]c1cccc(Cl)c12 [Compound 11, N-{5-chloro-4-[(4-chlorophenyl)amino]-9H-pyrimido[4,5-b]indol-2-yl}-2,2-dimethylpropanamide]
fold less potent than standard 23 in A431 cytotoxicity assay [3]: 5 fold
fold less active than standard 20 in VEGFR-2 inhibition assay [4]: 2 fold

CC(C)(C)C(=O)Nc1nc(Nc2cccc(F)c2)c2c(n1)[nH]c1cccc(Cl)c12 [Compound 13, N-{5-chloro-4-[(3-fluorophenyl)amino]-9H-pyrimido[4,5-b]indol-2-yl}-2,2-dimethylpropanamide]
fold less active than standard 20 in VEGFR-2 inhibition assay [4]: about 2.5 fold
fold less potent than standard 21 in EGFR inhibition assay ([6]; ratio of IC50 vs PD153035 21): 150 fold
fold less active than erlotinib in EGFR inhibition assay ([6]; ratio of IC50 vs erlotinib): 25 fold

COc1cccc(Nc2nc(NC(=O)C(C)(C)C)nc3[nH]c4cccc(Cl)c4c23)c1 [Compound 14, N-{5-chloro-4-[(3-methoxyphenyl)amino]-9H-pyrimido[4,5-b]indol-2-yl}-2,2-dimethylpropanamide]
fold less active than standard 20 in VEGFR-2 inhibition assay [4]: ~3.5 fold
